#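 Compound exposure: 48 hours, 5 concentrations, 96-well plates. GI50 = concentration required for 50% inhibition of growth.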 The source made the active and inactive calls. Cut-off read from the data, not from the text of the source: active = GI50 up to about 1.1 µM and inactive = higher.
# Tests used:
# Experiment in all cases: NCI-60 cell line screen, 48 h
# 786-0 = system: 786-0
# A498 = system: A498
# A549 = system: A549
# ACHN = system: ACHN
# BT-549 = system: BT-549
# CAKI-1 = system: CAKI-1
# CCRF-CEM = system: CCRF-CEM
# COLO 205 = system: COLO 205
# DU-145 = system: DU-145
# EKVX = system: EKVX
# HCC 2998 = system: HCC 2998
# HCT-116 = system: HCT-116
# HCT-15 = system: HCT-15
# HL-60 = system: HL-60
# HOP-62 = system: HOP-62
# HOP-92 = system: HOP-92
# HT-29 = system: HT-29
# Hs-578T = system: Hs-578T
# IGROV-1 = system: IGROV-1
# K562 = system: K562
# KM12 = system: KM12
# LOX IMVI = system: LOX IMVI
# M14 = system: M14
# MCF7 = system: MCF7
# MDA-MB-231 = system: MDA-MB-231
# MDA-MB-435 = system: MDA-MB-435
# MOLT-4 = system: MOLT-4
# Malme-3M = system: Malme-3M
# NCI-H226 = system: NCI-H226
# NCI-H23 = system: NCI-H23
# NCI-H460 = system: NCI-H460
# NCI-H522 = system: NCI-H522
# NCI/ADR-RES = system: NCI/ADR-RES
# OVCAR-3 = system: OVCAR-3
# OVCAR-4 = system: OVCAR-4
# OVCAR-5 = system: OVCAR-5
# OVCAR-8 = system: OVCAR-8
# PC-3 = system: PC-3
# RPMI-8226 = system: RPMI-8226
# RXF 393 = system: RXF 393
# SF-268 = system: SF-268
# SF-295 = system: SF-295
# SF-539 = system: SF-539
# SK-MEL-28 = system: SK-MEL-28
# SK-MEL-2 = system: SK-MEL-2
# SK-OV-3 = system: SK-OV-3
# SN12C = system: SN12C
# SNB-19 = system: SNB-19
# SNB-75 = system: SNB-75
# SW-620 = system: SW-620
# T47D = system: T47D
# TK-10 = system: TK-10
# U-251 = system: U-251
# UACC-257 = system: UACC-257
# UACC-62 = system: UACC-62
# UO-31 = system: UO-31
# MDA-N = system: MDA-N
# SK-MEL-5 = system: SK-MEL-5
# SR = system: SR
structure (smiles),measurement,setting,value
N#Cc1cc(-c2nc3cc(F)ccc3s2)ccc1N,GI50,786-0,27.6 µM (inactive)
same,GI50,A498,3.39 µM (inactive)
same,GI50,A549,1.84 µM (inactive)
same,GI50,ACHN,1.36 µM (inactive)
same,GI50,BT-549,2.3 µM (inactive)
same,GI50,CAKI-1,> 38.7 µM (inactive)
same,GI50,CCRF-CEM,> 100 µM (inactive)
same,GI50,COLO 205,1.8 µM (inactive)
same,GI50,DU-145,53.1 µM (inactive)
same,GI50,EKVX,0.253 µM (active)
same,GI50,HCC 2998,< 0.01 µM (active)
same,GI50,HCT-116,9.51 µM (inactive)
same,GI50,HCT-15,0.384 µM
same,GI50,HL-60,> 100 µM (inactive)
same,GI50,HOP-62,15.3 µM (inactive)
same,GI50,HOP-92,4.08 µM (inactive)
same,GI50,HT-29,1.97 µM (inactive)
same,GI50,Hs-578T,15.8 µM (inactive)
same,GI50,IGROV-1,< 0.0112 µM (active)
same,GI50,K562,> 100 µM (inactive)
same,GI50,KM12,0.059 µM (active)
same,GI50,LOX IMVI,> 100 µM (inactive)
same,GI50,M14,33.6 µM (inactive)
same,GI50,MCF7,< 0.01 µM (active)
same,GI50,MDA-MB-231,8.83 µM (inactive)
same,GI50,MDA-MB-435,> 78.3 µM (inactive)
same,GI50,MOLT-4,> 100 µM (inactive)
same,GI50,Malme-3M,> 79.1 µM (inactive)
same,GI50,NCI-H226,3.34 µM (inactive)
same,GI50,NCI-H23,< 0.01 µM (active)
same,GI50,NCI-H460,< 0.0226 µM (active)
same,GI50,NCI-H522,> 53.1 µM (inactive)
same,GI50,NCI/ADR-RES,> 61.2 µM (inactive)
same,GI50,OVCAR-3,19.8 µM (inactive)
same,GI50,OVCAR-4,0.718 µM (active)
same,GI50,OVCAR-5,0.0702 µM (active)
same,GI50,OVCAR-8,> 67.9 µM (inactive)
same,GI50,PC-3,24.7 µM (inactive)
same,GI50,RPMI-8226,> 100 µM (inactive)
same,GI50,RXF 393,2.11 µM (inactive)
same,GI50,SF-268,18.1 µM (inactive)
same,GI50,SF-295,20.4 µM (inactive)
same,GI50,SF-539,13.3 µM (inactive)
same,GI50,SK-MEL-28,> 100 µM (inactive)
same,GI50,SK-MEL-2,29.3 µM (inactive)
same,GI50,SK-OV-3,20.7 µM (inactive)
same,GI50,SN12C,> 100 µM (inactive)
same,GI50,SNB-19,18.2 µM (inactive)
same,GI50,SNB-75,1.59 µM (inactive)
same,GI50,SW-620,> 100 µM (inactive)
same,GI50,T47D,< 0.012 µM (active)
same,GI50,TK-10,0.034 µM (active)
same,GI50,U-251,12.4 µM (inactive)
same,GI50,UACC-257,> 100 µM (inactive)
same,GI50,UACC-62,14.9 µM (inactive)
same,GI50,UO-31,42 µM (inactive)
C#CC1=CC(=O)C(OC)=CC1=O,GI50,786-0,3.01 µM (inactive)
same,GI50,A498,> 100 µM (inactive)
same,GI50,A549,33.9 µM (inactive)
same,GI50,ACHN,3.44 µM (inactive)
same,GI50,CAKI-1,18.6 µM (inactive)
same,GI50,CCRF-CEM,7.36 µM (inactive)
same,GI50,COLO 205,27 µM (inactive)
same,GI50,DU-145,17.8 µM (inactive)
same,GI50,EKVX,23.3 µM (inactive)
same,GI50,HCC 2998,30.1 µM (inactive)
same,GI50,HCT-116,13.3 µM (inactive)
same,GI50,HCT-15,16.4 µM
same,GI50,HL-60,2.44 µM (inactive)
same,GI50,HOP-62,16.5 µM (inactive)
same,GI50,HOP-92,15.6 µM (inactive)
same,GI50,HT-29,23.3 µM (inactive)
same,GI50,Hs-578T,95.1 µM (inactive)
same,GI50,K562,5.06 µM (inactive)
same,GI50,KM12,58.7 µM (inactive)
same,GI50,LOX IMVI,17.6 µM (inactive)
same,GI50,M14,16.5 µM (inactive)
same,GI50,MCF7,14.8 µM (inactive)
same,GI50,MDA-MB-231,16.4 µM (inactive)
same,GI50,MDA-MB-435,18.1 µM (inactive)
same,GI50,MDA-N,19.1 µM (inactive)
same,GI50,MOLT-4,3.25 µM (inactive)
same,GI50,Malme-3M,25.9 µM (inactive)
same,GI50,NCI-H226,19.3 µM (inactive)
same,GI50,NCI-H23,20.9 µM (inactive)
same,GI50,NCI-H460,34.5 µM (inactive)
same,GI50,NCI-H522,1.77 µM (inactive)
same,GI50,NCI/ADR-RES,32.9 µM (inactive)
same,GI50,OVCAR-3,33.5 µM (inactive)
same,GI50,OVCAR-5,33.5 µM (inactive)
same,GI50,PC-3,53.2 µM (inactive)
same,GI50,RPMI-8226,17.8 µM (inactive)
same,GI50,RXF 393,15.2 µM (inactive)
same,GI50,SF-268,43.4 µM (inactive)
same,GI50,SF-295,29.4 µM (inactive)
same,GI50,SF-539,42.7 µM (inactive)
same,GI50,SK-MEL-28,37.2 µM (inactive)
same,GI50,SK-MEL-2,15.7 µM (inactive)
same,GI50,SK-MEL-5,16.2 µM (inactive)
same,GI50,SK-OV-3,> 100 µM (inactive)
same,GI50,SN12C,17.6 µM (inactive)
same,GI50,SNB-19,> 100 µM (inactive)
same,GI50,SNB-75,< 0.01 µM (active)
same,GI50,SR,6.7 µM (inactive)
same,GI50,SW-620,17.5 µM (inactive)
same,GI50,T47D,23 µM (inactive)
same,GI50,TK-10,48.6 µM (inactive)
same,GI50,U-251,31.9 µM (inactive)
same,GI50,UACC-257,41.6 µM (inactive)
same,GI50,UACC-62,15.7 µM (inactive)
same,GI50,UO-31,4.68 µM (inactive)
CN(C)CCCOc1nc2c(c(=O)n(C)c(=O)n2C)n1C.SC1=NC=NC2=NC=NC12,GI50,786-0,2.41 µM (inactive)
same,GI50,A498,32.8 µM (inactive)
same,GI50,A549,22 µM (inactive)
same,GI50,ACHN,6.84 µM (inactive)
same,GI50,BT-549,11.3 µM (inactive)
same,GI50,CAKI-1,1.02 µM (active)
same,GI50,CCRF-CEM,2.17 µM (inactive)
same,GI50,COLO 205,4.3 µM (inactive)
same,GI50,DU-145,0.692 µM (active)
same,GI50,EKVX,33.7 µM (inactive)
same,GI50,HCT-116,5.62 µM (inactive)
same,GI50,HCT-15,3.14 µM
same,GI50,HOP-62,18.5 µM (inactive)
same,GI50,HOP-92,> 100 µM (inactive)
same,GI50,HT-29,5.2 µM (inactive)
same,GI50,Hs-578T,16 µM (inactive)
same,GI50,IGROV-1,5.93 µM (inactive)
same,GI50,K562,1.14 µM (inactive)
same,GI50,KM12,3.85 µM (inactive)
same,GI50,LOX IMVI,0.303 µM (active)
same,GI50,M14,8.38 µM (inactive)
same,GI50,MCF7,2.09 µM (inactive)
same,GI50,MDA-MB-231,1.69 µM (inactive)
same,GI50,MDA-MB-435,1.7 µM (inactive)
same,GI50,MOLT-4,0.43 µM (active)
same,GI50,Malme-3M,0.634 µM (active)
same,GI50,NCI-H226,2.15 µM (inactive)
same,GI50,NCI-H23,6.71 µM (inactive)
same,GI50,NCI-H460,8.43 µM (inactive)
same,GI50,NCI-H522,2.79 µM (inactive)
same,GI50,NCI/ADR-RES,4.32 µM (inactive)
same,GI50,OVCAR-3,0.656 µM (active)
same,GI50,OVCAR-4,2.25 µM (inactive)
same,GI50,OVCAR-5,23.4 µM (inactive)
same,GI50,OVCAR-8,22.2 µM (inactive)
same,GI50,PC-3,8.53 µM (inactive)
same,GI50,RPMI-8226,0.757 µM (active)
same,GI50,RXF 393,> 100 µM (inactive)
same,GI50,SF-268,6.31 µM (inactive)
same,GI50,SF-295,2.22 µM (inactive)
same,GI50,SF-539,1.7 µM (inactive)
same,GI50,SK-MEL-28,55.5 µM (inactive)
same,GI50,SK-MEL-2,6.52 µM (inactive)
same,GI50,SK-MEL-5,11.1 µM (inactive)
same,GI50,SK-OV-3,23.9 µM (inactive)
same,GI50,SN12C,4.06 µM (inactive)
same,GI50,SNB-19,88.5 µM (inactive)
same,GI50,SNB-75,6.12 µM (inactive)
same,GI50,SW-620,4.45 µM (inactive)
same,GI50,T47D,68.9 µM (inactive)
same,GI50,TK-10,0.482 µM (active)
same,GI50,U-251,18.1 µM (inactive)
same,GI50,UACC-257,6 µM (inactive)
same,GI50,UACC-62,1.14 µM (inactive)
same,GI50,UO-31,3.73 µM (inactive)

# From ChEMBL document CHEMBL1201862, “PubChem BioAssay data set” (2004)
